The text below walks through data of PubChem BioAssay (NCI).

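Dose response: 5 concentrations. Exposure: 48 h. Format: 96-well plates. Endpoint: linear interpolation; highest concentration if not reached. TGI: total growth inhibition.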

Some test systems named below: CAKI-1 renal; COLO 205 colon; HOP-62 NSCLC; HT29 colon; MALME-3M melanoma; NCI-H226 lung; NCI-H460 lung; RPMI-8226 leukemia; SF-268 CNS; SK-MEL-28 melanoma; SN12C renal; SNB-19 CNS; SNB-75 CNS; U251 CNS; UACC-257 melanoma; UACC-62 melanoma; MOLT-4 leukemia; A498 renal.
Holding throughout (assay): inhibition of tumour cell growth, NCI panel, 48 h

Consider `COc1ccc(/C(Cl)=C(/c2ccc(O)cc2)c2ccc(OCCN(C)C)cc2)cc1`, for which the TGI in the assay on CAKI-1 renal is 27.5 µM; with COLO 205 colon it was 22.4 µM; in the assay with HOP-62 NSCLC it was 26.7 µM; with HT29 colon, 6.49 µM; in the assay on MALME-3M melanoma it was 14.4 µM; with NCI-H226 lung it was 34.4 µM. For the same compound, the TGI amounted to 26 µM in the assay on NCI-H460 lung; 21.6 µM in the assay with RPMI-8226 leukemia; 24.7 µM in the assay on SF-268 CNS; 13.4 µM in the assay with SK-MEL-28 melanoma; 26.2 µM in the assay on SN12C renal; 27.1 µM with SNB-19 CNS. Also, the TGI in the assay on SNB-75 CNS was found to be 23.3 µM; in the assay with U251 CNS, 23.3 µM; in the assay on UACC-257 melanoma, 9.09 µM; with UACC-62 melanoma, 32.9 µM.

Regarding `Cn1c2c(c3ccccc31)CCN(CCN1CCN(c3ccccc3)CC1)C2=O`, the TGI with CAKI-1 renal, in the assay with COLO 205 colon, in the assay on HT29 colon, in the assay with MOLT-4 leukemia, with NCI-H460 lung and with RPMI-8226 leukemia was more than 100 µM throughout. Moreover, the TGI in the assay on SF-268 CNS, with SK-MEL-28 melanoma, with SN12C renal, in the assay with U251 CNS and in the assay with UACC-62 melanoma was more than 100 µM throughout.

In the case of `CC1OC(n2ccc(=O)[nH]c2=O)C=C(OC(=O)c2ccccc2)C1=O` (centres undefined), the TGI in the assay on CAKI-1 renal, with COLO 205 colon, with HOP-62 NSCLC, with HT29 colon, in the assay with MALME-3M melanoma and in the assay on MOLT-4 leukemia was more than 100 µM in each case. Besides, the TGI in the assay with NCI-H460 lung is more than 100 µM; with RPMI-8226 leukemia, more than 100 µM; in the assay on SK-MEL-28 melanoma, more than 100 µM; in the assay with SN12C renal, more than 100 µM; with SNB-19 CNS, more than 100 µM; in the assay on SNB-75 CNS, 63.1 µM. Besides, the results for the TGI in the assay on U251 CNS, with UACC-257 melanoma and with UACC-62 melanoma were 81.3 µM, more than 100 µM and more than 100 µM, respectively.

As for `N#CCCN(c1ccc(/C=C2\N=C(Cc3ccccc3)OC2=O)cc1)S(=O)(=O)c1ccccc1`, the TGI with A498 renal, in the assay on CAKI-1 renal, in the assay on COLO 205 colon, in the assay on HOP-62 NSCLC, in the assay on HT29 colon and in the assay with MALME-3M melanoma was more than 100 µM each time. Besides, the TGI with MOLT-4 leukemia, in the assay on NCI-H226 lung, in the assay on NCI-H460 lung, in the assay on RPMI-8226 leukemia, with SF-268 CNS and in the assay on SK-MEL-28 melanoma was more than 100 µM throughout. Moreover, the TGI in the assay with SN12C renal, in the assay with SNB-19 CNS, in the assay with SNB-75 CNS, with U251 CNS, with UACC-257 melanoma and in the assay with UACC-62 melanoma was more than 100 µM each time.

Consider `COc1ccc(NC(=O)CC(=O)N2N=C(N(CCC#N)c3ccccc3Cl)CC2c2ccccc2)cc1` (centres undefined), for which the TGI in the assay on A498 renal, in the assay with CAKI-1 renal, in the assay with COLO 205 colon, in the assay with HOP-62 NSCLC, in the assay with HT29 colon and in the assay on MALME-3M melanoma was more than 100 µM in each case. Further, the TGI in the assay with MOLT-4 leukemia, in the assay on NCI-H226 lung, in the assay with NCI-H460 lung, in the assay with RPMI-8226 leukemia, in the assay on SF-268 CNS and in the assay with SK-MEL-28 melanoma was more than 100 µM throughout. Further, the TGI with SN12C renal, in the assay on SNB-19 CNS, with SNB-75 CNS, with U251 CNS, in the assay with UACC-257 melanoma and with UACC-62 melanoma was more than 100 µM in each case.

As for `CCCOC(=O)C1CCC(=O)N1C(=O)C(C)Cl` (centres undefined), the TGI in the assay with A498 renal, with CAKI-1 renal, in the assay with COLO 205 colon, in the assay on HOP-62 NSCLC, with HT29 colon and in the assay on MALME-3M melanoma was more than 100 µM in each case. Also, the TGI with MOLT-4 leukemia, in the assay on NCI-H226 lung, with NCI-H460 lung, with RPMI-8226 leukemia, in the assay with SF-268 CNS and with SK-MEL-28 melanoma was more than 100 µM throughout. The TGI with SN12C renal, with SNB-19 CNS, with SNB-75 CNS, in the assay with U251 CNS, in the assay on UACC-257 melanoma and with UACC-62 melanoma was more than 100 µM throughout.

With `Nc1nc(NCCO)c(N=O)c(=O)[nH]1`, the TGI in the assay with A498 renal, in the assay with CAKI-1 renal, in the assay with COLO 205 colon, in the assay on HOP-62 NSCLC, with HT29 colon and in the assay on MALME-3M melanoma was more than 100 µM throughout. Moreover, the TGI in the assay with NCI-H226 lung, in the assay with NCI-H460 lung, in the assay with RPMI-8226 leukemia, with SF-268 CNS, in the assay on SK-MEL-28 melanoma and in the assay on SN12C renal was more than 100 µM each time. Moreover, the TGI in the assay on SNB-75 CNS, with U251 CNS, in the assay with UACC-257 melanoma and in the assay on UACC-62 melanoma was more than 100 µM in each case.

On to `CCCCCCCc1cc(OC(=O)c2c(C)cc(OC)cc2O)cc(O)c1C(=O)O`, for which the TGI with A498 renal was 38 µM; in the assay with CAKI-1 renal, 43.4 µM; with COLO 205 colon it was 37.3 µM; with HOP-62 NSCLC, 35.2 µM; with HT29 colon it was more than 100 µM; in the assay on MALME-3M melanoma, 37.6 µM. For the same compound, the TGI in the assay on MOLT-4 leukemia amounted to 88.3 µM; with NCI-H460 lung it was 36 µM; in the assay with RPMI-8226 leukemia it was 74 µM; in the assay on SF-268 CNS, 45.9 µM; with SK-MEL-28 melanoma, 38.7 µM; in the assay on SN12C renal, 82.9 µM. Moreover, the TGI with SNB-19 CNS worked out at 58.3 µM; with SNB-75 CNS, 36.1 µM; in the assay on U251 CNS, 32.1 µM; in the assay with UACC-257 melanoma, 87.7 µM; with UACC-62 melanoma, 43.7 µM.
